Test results: publication PMC8689140 (Frontiers in Pharmacology, 2021)

Assays:
CYP2C9 = test system: T1, CYP2C9; assay: P450 phenotyping, chemical inhibitors in HLMs, CYP2C9; assay type: in vitro ADME, human; conditions: CYP2C9 probe substrate, 5 µM, specific inhibitor
T1 construct: tissue Corning Co., Ltd (Shanghai, China); host or cells: human liver microsomes
Experimental: (§1) According to the result of metabolite identification, three metabolites were selected as the targets for metabolic phenotyping. Seven CYP isozymes (CYP1A2, CYP2B6, CYP2C8, CYP2C9, CYP2C19, CYP2D6, and CYP3A4) were investigated using two kinds of methods: chemical inhibitors in human liver microsomes (HLMs) method (Experiment 1) and rhCYP isozymes method (Experiment 2).
Experiment 1: HLMs were thawed on ice and diluted in100 mM sodium phosphate buffer (pH 7.4) containing 3 mM magnesium chloride. […] After 10 min of preincubation at 37°C, the reactions were initiated by adding 20 µL of NADPH (10 mM) and then incubated at 37 °C in a shaking water bath for 30 min. The samples were prepared in triplicates. The reactions were terminated by adding 600 µL of ice-cold acetonitrile and stored at −20°C until analysis. Control samples without NADPH and 0-time point samples were included. As positive controls, the probe substrates of each P450 isozyme under the same conditions were tested, and specific inhibitors was added. Next, the samples were centrifuged at 13,000 rpm for 10 min, the supernatants were determined by LC–MS/MS.

rhCYP CYP2C9 = test system: T2, rhCYP CYP2C9; assay: P450 phenotyping, rhCYP isozymes, CYP2C9; assay type: in vitro ADME, human; conditions: rhCYP2C9 probe substrate, 1 µM
T2 construct: purchased Corning Co., Ltd (Shanghai, China)
Source text: as §1
Experiment 2: Each rhCYP isozyme was thawed and diluted as above method. As positive controls, the probe substrates of each P450 isozyme were tested under the same conditions. […] Vx ([…]) is the production rate of metabolites for each rhCYP isozyme.

Q: Which “%Inhibation in HLM” value (CYP2C9) does the source give for O=C(O)Cc1ccccc1Nc1c(Cl)cccc1Cl [Diclofenac] here?
A: 89.9%

Q: And the “CL int in rhCYP” value (rhCYP CYP2C9)?
A: 6.15 µL/min/pmol
